Where a SMILES comes first, the peptide text is derived from it. Bridges are numbered along the chain shown (N, C = ends). Side-chain parts run from the residue outwards. [ ]: non-standard residue; d: D form. The star is where a group is joined. DOTA = O=C(O)CN1CCN(CC(=O)O)CCN(CC(=O)*)CCN(CC(=O)O)CC1; Pro(cis-4-F) = O=C(O)[C@@H]1C[C@H](F)CN1; Phe(2-Cl) = N[C@@H](Cc1ccccc1Cl)C(=O)O; Dopa = N[C@@H](Cc1ccc(O)c(O)c1)C(=O)O; Hyp = O=C(O)[C@@H]1C[C@@H](O)CN1; Gly(cBu) = N[C@H](C(=O)O)C1CCC1; Pentanoyl(4-Me) = CC(C)CCC(=O)*; Cit = NC(=O)NCCC[C@H](N)C(=O)O; Butoxycarbonyl = CCCCOC(=O)*; Dab = NCC[C@H](N)C(=O)O; Nva = CCC[C@H](N)C(=O)O; Abu = CC[C@H](N)C(=O)O; Dap = NC[C@H](N)C(=O)O; Pentanoyl = CCCCC(=O)*; AEEA = NCCOCCOCC(=O)O; Aib = CC(C)(N)C(=O)O
How the values were obtained:
[1] = biological target: T1, human uPAR (uPAR-Fc) (Homo sapiens, UniProt Q03405); test: Surface plasmon resonance (SPR) assay, single cycle kinetics; format: binding; settings: pKD category for uPAR SPR activity assay; uPAR-Fc on Protein A-Chip, single cycle kinetics, 25°C; read-out: pKD CAT (converted)
T1 construct: comprising amino acids Leu23-Arg303 according to UniProt entry Q03405.1; purchased R&D Systems 10378-UK-100
Outline: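 uPAR-Fc (Leu23-Arg303 extracellular domains, human IgG1 Fc) captured on Protein A chip to ~2000 RU; single-cycle kinetics at 25°C in HEPES running buffer pH 7.4 with 0.1% DMSO. KD from double-referenced sensorgrams fitted to 1:1 Langmuir model, reported as pKD.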

[2] = biological target: T2, uPAR-expressing HEC-265 human endometrial adenocarcinoma cells (Homo sapiens, UniProt Q03405); test: Competitive FACS binding assay; settings: pIC50 category of FACS binding
T2 construct: Cell surface uPAR-expressing HEC-265 human endometrial adenocarcinoma cells; host or cells: HEC-265
Outline: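 Competitive displacement of a 10 nM biotinylated peptide from HEC-265 cells (1 h, 4 °C, PBS/1% BSA), detected via APC-streptavidin by flow cytometry. pIC50 from four-parameter logistic fit of median fluorescence versus concentration.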

T1 sequence (Q03405 23-303): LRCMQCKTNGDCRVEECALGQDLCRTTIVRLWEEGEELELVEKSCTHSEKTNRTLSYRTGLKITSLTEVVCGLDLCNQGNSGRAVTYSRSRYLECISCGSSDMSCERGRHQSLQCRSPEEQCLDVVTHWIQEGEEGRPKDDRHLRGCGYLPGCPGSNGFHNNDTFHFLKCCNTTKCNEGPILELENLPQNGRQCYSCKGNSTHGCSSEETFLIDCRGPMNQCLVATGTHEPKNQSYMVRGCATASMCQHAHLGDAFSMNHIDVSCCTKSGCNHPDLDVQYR
T2 sequence (Q03405 23-335): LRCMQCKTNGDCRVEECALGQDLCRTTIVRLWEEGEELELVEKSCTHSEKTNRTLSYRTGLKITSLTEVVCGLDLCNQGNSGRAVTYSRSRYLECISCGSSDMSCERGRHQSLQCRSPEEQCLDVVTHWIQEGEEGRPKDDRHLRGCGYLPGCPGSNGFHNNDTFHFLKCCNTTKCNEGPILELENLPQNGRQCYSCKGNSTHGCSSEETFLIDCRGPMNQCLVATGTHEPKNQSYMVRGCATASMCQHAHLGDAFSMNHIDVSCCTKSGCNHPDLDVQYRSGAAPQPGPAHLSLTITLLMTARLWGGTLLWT

SMILES | Kd [1] [nM] | IC50 [2] [nM]
CCCCC(=O)N[C@H]1CSSC[C@@H](C(N)=O)NC(=O)[C@H](CCC)NC(=O)[C@H](Cc2ccccc2)NC(=O)[C@@H]2C[C@@H](O)CN2C(=O)[C@@H]2CCCN2C(=O)[C@H](Cc2ccccc2)NC(=O)[C@H](Cc2ccc(O)cc2)NC(=O)[C@H](CCC(N)=O)NC(=O)[C@H](CCCNC(=N)N)NC1=O [UPAR-447, Pent-[Cys-Arg-Gln-Tyr-Phe-Pro-Hyp-Phe-Nva-Cys]-NH2] (Pentanoyl-CRQYFP[Hyp]F[Nva]C-NH2; disulfide 1-10) | < 1.58 | ≤ 10
CCCCC(=O)N[C@H]1CSSC[C@@H](C(N)=O)NC(=O)[C@H](CCC)NC(=O)[C@H]([C@@H](C)CC)NC(=O)[C@@H]2C[C@@H](O)CN2C(=O)[C@@H]2CCCN2C(=O)[C@H](Cc2ccccc2)NC(=O)[C@H](Cc2ccc(O)cc2)NC(=O)[C@H](CCCCN)NC(=O)[C@H](CCCNC(=N)N)NC1=O [UPAR-448, Pent-[Cys-Arg-Lys-Tyr-Phe-Pro-Hyp-Ile-Nva-Cys]-NHz] (Pentanoyl-CRKYFP[Hyp]I[Nva]C-NH2; disulfide 1-10) | < 1.58 | ≤ 10
CC[C@H](C)[C@@H]1NC(=O)[C@@H](C)NC(=O)[C@@H]2CCCN2C(=O)[C@H](Cc2ccccc2)NC(=O)[C@H](Cc2ccc(O)cc2)NC(=O)[C@H](CCC(N)=O)NC(=O)[C@H](CCCNC(=N)N)NC(=O)[C@@H](NC(=O)CCC(C)C)CSSC[C@@H](C(=O)NCCOCCOCC(=O)N[C@@H](CCCCNC(=O)CN2CCN(CC(=O)O)CCN(CC(=O)O)CCN(CC(=O)O)CC2)C(N)=O)NC(=O)[C@H](CC(C)C)NC1=O [UPAR-449, iHex-[Cys-Arg-Gln-Tyr-Phe-Pro-ala-Ile-Leu-Cys]-O2Oc-Lys(DOTA)-NH2] ({Pentanoyl(4-Me)}-CRQYFP[dA]ILC[AEEA]K(DOTA)-NH2; disulfide 1-10) | 1.58 to 10 | ≥ 126
CCCCC(=O)N[C@H]1CSSC[C@@H](C(N)=O)NC(=O)[C@H](CCC)NC(=O)[C@H]([C@@H](C)CC)NC(=O)[C@@H]2C[C@@H](O)CN2C(=O)[C@@H]2CCCN2C(=O)[C@H](Cc2ccccc2Cl)NC(=O)[C@H](Cc2ccc(O)cc2)NC(=O)[C@H](CCCCNC(=O)CN2CCN(CC(=O)O)CCN(CC(=O)O)CCN(CC(=O)O)CC2)NC(=O)[C@H](CCCNC(N)=O)NC1=O [UPAR-450, Pent-[Cys-Cit-Lys(DOTA)-Tyr-Ocf-Pro-Hyp-Ile-Nva-Cys]-NH2] (Pentanoyl-C[Cit]K(DOTA)Y[Phe(2-Cl)]P[Hyp]I[Nva]C-NH2; disulfide 1-10) | < 1.58 | ≤ 10
CC[C@@H]1NC(=O)[C@H]([C@@H](C)CC)NC(=O)[C@@H](C)NC(=O)[C@@H]2CCCN2C(=O)[C@H](Cc2ccccc2)NC(=O)[C@H](Cc2ccc(O)cc2)NC(=O)[C@H](CCC(N)=O)NC(=O)[C@H](CCCNC(N)=O)NC(=O)[C@@H](NC(=O)CCC(C)C)CSSC[C@@H](C(N)=O)NC1=O [UPAR-451, iHex-[Cys-Cit-Gln-Tyr-Phe-Pro-ala-Ile-Abu-Cys]-NH2] ({Pentanoyl(4-Me)}-C[Cit]QYFP[dA]I[Abu]C-NH2; disulfide 1-10) | 1.58 to 10 | ≤ 10
CC[C@H](C)[C@@H]1NC(=O)C(C)(C)NC(=O)[C@@H]2CCCN2C(=O)[C@H](Cc2ccccc2)NC(=O)[C@H](Cc2ccc(O)cc2)NC(=O)[C@H](CCCCNC(=O)CN2CCN(CC(=O)O)CCN(CC(=O)O)CCN(CC(=O)O)CC2)NC(=O)[C@H](CCCNC(N)=O)NC(=O)[C@@H](NC(=O)CCC(C)C)CSSC[C@@H](C(N)=O)NC(=O)[C@H](CC(C)C)NC1=O [UPAR-452, iHex-[Cys-Cit-Lys(DOTA)-Tyr-Phe-Pro-Aib-Ile-Leu-Cys]-NH2] ({Pentanoyl(4-Me)}-C[Cit]K(DOTA)YFP[Aib]ILC-NH2; disulfide 1-10) | < 1.58 | ≤ 10
CC(C)CCC(=O)N[C@H]1CSSC[C@@H](C(N)=O)NC(=O)[C@H](CC(C)C)NC(=O)[C@H](C2CCC2)NC(=O)[C@@H](C)NC(=O)[C@@H]2CCCN2C(=O)[C@H](Cc2ccccc2)NC(=O)[C@H](Cc2ccc(O)cc2)NC(=O)[C@H](CCC(N)=O)NC(=O)[C@H](CCCNC(N)=O)NC1=O [UPAR-453, iHex-[Cys-Cit-Gln-Tyr-Phe-Pro-ala-Cbg-Leu-Cys]-NH2] ({Pentanoyl(4-Me)}-C[Cit]QYFP[dA][Gly(cBu)]LC-NH2; disulfide 1-10) | 1.58 to 10 | ≤ 10
CCCCC(=O)N[C@H]1CSSC[C@@H](C(N)=O)NC(=O)[C@H](CCC)NC(=O)[C@H]([C@@H](C)CC)NC(=O)[C@@H]2C[C@@H](O)CN2C(=O)[C@@H]2CCCN2C(=O)[C@H](Cc2ccccc2)NC(=O)[C@H](Cc2ccc(O)cc2)NC(=O)[C@H](CCC(N)=O)NC(=O)[C@H](Cc2ccc(O)cc2)NC1=O [UPAR-454, Pent-[Cys-Tyr-Gln-Tyr-Phe-Pro-Hyp-Ile-Nva-Cys]-NH2] (Pentanoyl-CYQYFP[Hyp]I[Nva]C-NH2; disulfide 1-10) | < 1.58 | ≤ 10
CCCCOC(=O)N[C@H]1CSSC[C@@H](C(N)=O)NC(=O)[C@H](CCC)NC(=O)[C@H]([C@@H](C)CC)NC(=O)[C@@H]2C[C@@H](O)CN2C(=O)[C@@H]2C[C@H](F)CN2C(=O)[C@H](Cc2ccccc2)NC(=O)[C@H](Cc2ccc(O)cc2)NC(=O)[C@H](CNC(=O)CN2CCN(CC(=O)O)CCN(CC(=O)O)CCN(CC(=O)O)CC2)NC(=O)[C@H]([C@@H](C)O)NC1=O [UPAR-455, Butoc-[Cys-Thr-Dap(DOTA)-Tyr-Phe-4Cfp-Hyp-Ile-Nva-Cys]-NH2] (Butoxycarbonyl-CT[Dap](DOTA)YF[Pro(cis-4-F)][Hyp]I[Nva]C-NH2; disulfide 1-10) | < 1.58 | ≤ 10
CCCCOC(=O)N[C@H]1CSSC[C@@H](C(N)=O)NC(=O)[C@H](CCC)NC(=O)[C@H]([C@@H](C)CC)NC(=O)[C@@H]2C[C@@H](O)CN2C(=O)[C@@H]2C[C@H](F)CN2C(=O)[C@H](Cc2ccccc2)NC(=O)[C@H](Cc2ccc(O)c(O)c2)NC(=O)[C@H](CCNC(=O)CN2CCN(CC(=O)O)CCN(CC(=O)O)CCN(CC(=O)O)CC2)NC(=O)[C@H]([C@@H](C)O)NC1=O [UPAR-456, Butoc-[Cys-Thr-Dab(DOTA)-Dopa-Phe-4Cfp-Hyp-Ile-Nva-Cys]-NH2] (Butoxycarbonyl-CT[Dab](DOTA)[Dopa]F[Pro(cis-4-F)][Hyp]I[Nva]C-NH2; disulfide 1-10) | < 1.58 | ≤ 10
CC[C@H](C)[C@@H]1NC(=O)[C@@H]2C[C@@H](O)CN2C(=O)[C@@H]2CCCN2C(=O)[C@H](Cc2ccccc2)NC(=O)[C@H](Cc2ccc(O)cc2)NC(=O)[C@H](CC(=O)O)NC(=O)[C@H](CCCNC(=N)N)NC(=O)[C@@H](NC(=O)CCC(C)C)CSSC[C@@H](C(N)=O)NC(=O)[C@H](CC(C)C)NC1=O [UPAR-458, iHex-[Cys-Arg-Asp-Tyr-Phe-Pro-Hyp-Ile-Leu-Cys]-NHz] ({Pentanoyl(4-Me)}-CRDYFP[Hyp]ILC-NH2; disulfide 1-10) | < 1.58 | ≤ 10
CCCCOC(=O)N[C@H]1CSSC[C@@H](C(N)=O)NC(=O)[C@H](CCC)NC(=O)[C@H]([C@@H](C)CC)NC(=O)[C@@H]2C[C@@H](O)CN2C(=O)[C@@H]2C[C@H](F)CN2C(=O)[C@H](Cc2ccccc2)NC(=O)[C@H](Cc2ccc(O)c(O)c2)NC(=O)[C@H](CCCCNC(=O)[C@@H](CC(=O)O)NC(=O)CN2CCN(CC(=O)O)CCN(CC(=O)O)CCN(CC(=O)O)CC2)NC(=O)[C@H]([C@@H](C)O)NC1=O [UPAR-459, Butoc-[Cys-Thr-Lys(DOTA-asp)-Dopa-Phe-4Cfp-Hyp-Ile-Nva-Cys]-NH2] (Butoxycarbonyl-CTK([dD-DOTA])[Dopa]F[Pro(cis-4-F)][Hyp]I[Nva]C-NH2; disulfide 1-10) | < 1.58 | ≤ 10
